{
  "source": "patent US20180008688A1",
  "about": "“METHOD AND COMPOSITIONS FOR ENHANCING IMMUNOTHERAPEUTIC TREATMENT OF A CANCER” (Augusta University Research Institute, Inc., priority 2016, published 2018)",
  "key": {"T cells": {"system": "T cells", "experiment": "Purified T cells activated with anti-CD3/CD28 with nutlin, IL-12, MG-132", "assay_type": "cell-based, mouse", "settings": "MG-132 in the presence of both nutlin and IL-12", "excerpt": "Regulation of p53 is complex, and it can be targeted by multiple pathways besides MDM2 (Chao C. C. (2015) Clin. Chim. Acta 438: 139-147). If IL-12 is rescuing T cells from nutlin, one possibility is that IL-12 might activate an alternative pathway of p53 degradation, not dependent on MDM2. To test this, purified T cells were activated (without any antigen-presenting cells or other cells) using anti-CD3/CD28 antibodies. T cells were activated in the presence or absence of nutlin with or without addition of recombinant IL-12.\nFinally, to test the hypothesis that IL-12 targeted p53 for proteolytic degradation via an alternated pathway, proteasomal function was inhibited using MG-132. T cells were activated using immobilized CD3/CD28 as above. […] CFSE proliferation tracked inversely with p53 levels. […] While MG-132 affects many intracellular pathways besides p53, these findings support the basic hypothesis that IL-12 bypasses nutlin by targeting p53 for degradation via an alternative route."}, "B16F10 tumors [1]": {"system": "B16F10 tumors", "assay_type": "in vivo", "settings": "for response of B16 melanoma tumors to chemotherapy alone: single moderate dose", "description": "In vivo tumor studies: The B16F10 and E.G7 (EL4-OVA) cell lines were obtained from ATCC. B16-OVA (B16F10 transfected with full-length chicken ovalbumin) clone MO4 was according to Falo et al. ((1995) Nat. Med. 1: 649-653). B16F10 cells expressing EGFP protein (B16-GFP cells) were derived using lentiviral transfection. Tumor implantation was performed as described (Sharma et al., (2007) J. Clin. Invest. 117: 2570-2582), using 1×10^5 cells for B16F10 and 1×10^6 cells for other cell lines (large inocula were used to ensure rapid tumor engraftment and immune suppression). […] Tumor volume was calculated from orthogonal diameters using the formula V=L×W^2×π/6. Mice received approved euthanasia when tumors reached a size of 300 mm^2 (product of orthogonal diameters); death was never used a planned endpoint in any study.\n(§1) Tumor implantation was performed as described (Sharma et al., (2007) J. Clin. Invest. 117: 2570-2582). VO-OHpic was given at 10 mg/kg/day i.p., in 10% DMSO/PBS. Cyclophosphamide was given at 150 mg/kg i.p×1 dose; and oxaliplatin at 5 mg/kg i.p×1 dose. Nutlin-3a was administered daily at 10 mg/kg/day i.p. For checkpoint blockade, mice received anti-CTLA-4 plus a cocktail of antibodies against the PD-1 pathway. Vaccines and T cell adoptive transfer studies were performed as described (Sharma et al., (2015) Sci. Advances. 1: e1500845).\nVO-OHpic/CTX, nutlin-3a, oxaliplatin and immunotherapy regimens: The vanadate compound VO-OHpic (Mak et al., (2010) J. Chem. Biol. 3: 157-163) inhibits PTEN activity, and this drug was used to destabilize PTEN+Tregs during chemotherapy. Like all of the available PTEN-inhibitors, VO-OHpic can also affect other phosphatases (Spinelli et al., (2015) Adv. Biol. Regul. 57: 102-111).\nVO-OHpic was given at 10 mg/kg/day i.p., in 10% DMSO/PBS. Cyclophosphamide was given at 150 mg/kg i.p×1 dose. Oxaliplatin was given at 5 mg/kg i.p×1 dose. […] For checkpoint blockade, mice received anti-CTLA-4 (clone 9D9, BioXcell) plus a cocktail of antibodies against the PD-1 pathway: anti-PD-L2, clone TY25 (Yamazaki et al., (2002) J. Immunol. 169: 5538-5545); anti-PD-1, clone J43 (Agata et al., (1996) Int. Immunol. 8: 765-772); and anti-PD-L1, clone MIH7 (Tsushima et al., (2003) Eur. J. Immunol. 33: 2773-2782). A cocktail was used in order to block the PD-1 pathway as completely as possible and thus minimize any peculiarities of a single blocking antibody."}, "[2]": {"system": "B16F10, EL4, LLC, Tg(Grm1)Epv, MMTV-PyMT", "assay_type": "in vivo, mouse", "settings": "every tumor tested", "excerpt": "Conversely, the effect of chemotherapy could be fully replaced by adoptive transfer of exogenous tumor-specific CD8^+ T cells (e.g., pmel-1 cells) activated with vaccine."}, "E.G7 tumors [3]": {"system": "E.G7 tumors", "experiment": "RIP-mOVA mice with E.G7 tumors treated with oxaliplatin with or without nutlin", "assay_type": "in vivo", "settings": "oxaliplatin in the absence of nutlin", "description": "A classical model of ICD was first tested in which EL4-OVA lymphoma tumors (clone E.G7) are treated with oxaliplatin chemotherapy (Ghiringhelli et al., (2009) Nat. Med. 15: 1170-1178). E.G7 bears the same model antigen as B16-OVA (described with the RIP-mOVA model, above), so it was possible to test the effects of nutlin plus oxaliplatin in the RIP-mOVA model."}, "E.G7 tumors [4]": {"system": "E.G7 tumors", "experiment": "E.G7/oxaliplatin model in LysMcre/p53-KO hosts with or without nutlin-3a", "assay_type": "in vivo, mouse", "settings": "LysMcre/p53 knockout mice", "excerpt": "To test whether the relevant target of nutlin in tumors was specifically the p53 expression in myeloid dendritic cells, the E.G7/oxaliplatin model in LysMcre/p53-KO hosts was used. If mice lacked the relevant p53 in tumor-associated myeloid cells, then LysMcre/p53-KO mice should lose all anti-tumor effect of nutlin. For these studies, mice received congenically-marked OT-I cells to monitor whether T cells were still rescued by IL-12 in tumors.\n(§2) Mice with a nuclear-localizing Cre-recombinase knock-in replacing one copy of the Lyz2 gene (Clausen et al., (1999) Transgenic Res. 8: 265-277) (strain 004781, Jax) were crossed as heterozygotes with homozygous p53^flox/flox mice (Marino et al., (2000) Genes Dev. 14: 994-1004) (strain 008462, Jax).\nas §1"}, "B16F10 tumors [5]": {"system": "B16F10 tumors", "experiment": "Tumors in knockout hosts treated with VO-OHpic or CTX/VO-OHpic", "assay_type": "in vivo, mouse", "settings": "VO-OHpic alone, LysMcre/p53-KO mice", "excerpt": "as §2\nIn vivo tumor studies: The B16F10 and E.G7 (EL4-OVA) cell lines were obtained from ATCC. B16-OVA (B16F10 transfected with full-length chicken ovalbumin) clone MO4 was according to Falo et al. ((1995) Nat. Med. 1: 649-653). B16F10 cells expressing EGFP protein (B16-GFP cells) were derived using lentiviral transfection. Tumor implantation was performed as described (Sharma et al., (2007) J. Clin. Invest. 117: 2570-2582), using 1×10^5 cells for B16F10 and 1×10^6 cells for other cell lines (large inocula were used to ensure rapid tumor engraftment and immune suppression). Tumors were implanted bilaterally in each mouse as a control for reproducible implantation technique; replicate tumor diameters in a single mouse were typically within ±15%. Tumor volume was calculated from orthogonal diameters using the formula V=L×W^2×π/6. Mice received approved euthanasia when tumors reached a size of 300 mm^2 (product of orthogonal diameters); death was never used a planned endpoint in any study.\nTumor implantation was performed as described (Sharma et al., (2007) J. Clin. Invest. 117: 2570-2582). […]"}, "B16F10 tumors [6]": {"system": "B16F10 tumors", "settings": "VO-OHpic combined with chemotherapy; Sharma et al. 2015; cited from earlier work"}, "p53": {"system": "p53", "experiment": "Tumors in PTEN^Treg-KO mice treated in vivo with pifithrin", "parameters": "species or system mouse"}, "Ly6c+CD11c^NEG cells": {"system": "Ly6c+CD11c^NEG cells", "experiment": "Mouse myeloid-cell maturation co-cultures", "assay_type": "cell-based", "settings": "exposed to signals from activated T cells", "description": "Mouse myeloid-cell maturation cultures: Maturation co-cultures were performed in V-bottom wells (Nunc 249952 V96), using RPMI-1640 medium with 10% fetal bovine serum, but no added cytokines. The preferred source of myeloid cells was TDLN or spleen from mice bearing B16F10 or E.G7 tumors. Rapid isolation of cells was important for viability, so cells were disaggregated by passing once through a 40 μm mesh, then stained briefly on ice and FACS-sorted into ice-cold medium using low-shear fluidics and a large nozzle (Mo-Flo cell sorter). […] myeloid cells were enriched by sorting for Ly6c^+ that were CD11c^NEG B220^NEG (to exclude dendritic cells and B cells). For some experiments, myeloid cells were sub-fractionated using sort dates based on expression of Gr-1 and CD11b.\nSorted Ly6c+ myeloid cells were added to co-cultures as previously described (Sharma et al., (2013) Immunity 38: 998-1012). As an inflammatory stimulus for differentiation, CD8^+ effector cells (5×10^4) were FACS-sorted from spleens of either OT-I or pmel-1 mice (both performed equivalently), and added to co-cultures along with 100 nM cognate peptide (SIINFEKL (SEQ ID NO: 1) or hgp100). […]"}, "CD33+ cells": {"system": "CD33+ cells", "experiment": "Human myeloid cell cultures matured with recombinant IFNγ", "assay_type": "cell-based", "settings": "cultured in GM-CSF+IL-6, then IFNγ; FIG. 5A", "excerpt": "(Minneapolis, MN) and isolated by centrifugation over Ficoll-Paque PLUS (GE Healthcare), followed by enrichment for myeloid cells using CD33^+ micro-beads (Miltenyi MACs). Alternatively, myelomonocytic cells were enriched by counter-flow elutriation as previously described (Munn et al., (2002) Science 297: 1867-1870; Munn et al., (2004) J. lmmunol. 172: 4100-4110). Immature myeloid cells were then generated by culture for 7 days as previously described (Koehn et al., (2015) Blood 126: 1621-1628; Lechner et al., (2010) J. lmmunol. 185, 2273-2284). Briefly, PBMC were cultured in RPMI-1640 medium with 10% FBS, 1% Pen/Strep, 1% GlutaMax as well as recombinant human GM-CSF (10 ng/ml, R&D Systems)+IL-6 (10 ng/ml, R&D Systems). Culture growth media was refreshed on days 3 and 6; on day 7, cells were washed and returned to culture in medium without GM-CSF/IL-6. Replicate cultures were then treated for 2 days with or without recombinant human IFNγ (30ng/ml, R&D Systems) to induce maturation, and with or without p53 inhibitor pifithrin-α (10 uM, Sigma). After 48 h, cultures were harvested and stained for CD11b, CD33, phospho-p53-Ser15, IRF5 and BDCA3 (CD141).\nHuman peripheral-blood mononuclear cells were enriched for monocytic cells, then cultured in GM-CSF+IL-6 as described by Koehn et al. ((2015) Blood 126: 1621-1628). […]"}, "[7]": {"settings": "VO-OHpic alone, WT control mice"}},
  "note": "“Also recorded” adds a separate entry of the source. Read-outs that look alike come from different tables or passages of the source. Peptide text beside a SMILES is read from it. * marks the point of attachment. Cbz = O=C(OCc1ccccc1)*",
  "data": [
    {"compound": "CC(C)C[C@@H](C=O)NC(=O)[C@H](CC(C)C)NC(=O)[C@H](CC(C)C)NC(=O)OCc1ccccc1", "note": "[MG-132] (Cbz-Leu-Leu-Leu-aldehyde)", "values": [
      {"measurement": "T cell proliferation", "setting": "T cells", "result": "inhibited proliferation"},
      {"measurement": "p53 levels in activated T cells", "setting": "T cells", "result": "progressively increased p53"}
    ]},
    {"compound": "O=P1(N(CCCl)CCCl)NCCCO1", "note": "(stereo not shown) [cyclophosphamide]", "values": [
      {"measurement": "response of B16 melanoma tumors to chemotherapy alone", "setting": "B16F10 tumors [1]", "result": "highly resistant"},
      {"measurement": "interaction of chemotherapy drug with PTEN-inhibitor", "setting": "[2]", "result": "synergy"}
    ]},
    {"compound": "Nc1ccn([C@@H]2O[C@H](CO)[C@@H](O)C2(F)F)c(=O)n1", "note": "[gemcytabine]", "values": [
      {"measurement": "response of B16 melanoma tumors to chemotherapy alone", "setting": "B16F10 tumors [1]", "result": "highly resistant"},
      {"measurement": "interaction of chemotherapy drug with PTEN-inhibitor", "setting": "[2]", "result": "synergy"}
    ]},
    {"compound": "O=C1[O][Pt]2([NH][C@@H]3CCCC[C@H]3[NH]2)[O]C1=O", "note": "[oxaliplatin]", "values": [
      {"measurement": "anti-tumor effect", "setting": "E.G7 tumors [3]", "result": "transient regression"},
      {"measurement": "autoimmune diabetes", "setting": "E.G7 tumors [3]", "result": "rapidly died from progressive autoimmune diabetes"},
      {"measurement": "response to oxaliplatin chemotherapy", "setting": "E.G7 tumors [4]", "result": "unable to respond; also recorded: lost all response to treatment"}
    ]},
    {"compound": "VO-OHpic", "values": [
      {"measurement": "tumor growth", "setting": "B16F10 tumors [5]", "result": "not suppressed"},
      {"measurement": "destabilization of PTEN+Tregs in tumors", "setting": "B16F10 tumors [6]", "result": "rapid and essentially complete destabilization"},
      {"measurement": "anti-tumor effect", "setting": "B16F10 tumors [1]; PTEN-inhibitor by itself, large established tumors, FIG. 12", "result": "no effect"},
      {"measurement": "Ly6c+CD103+ dendritic cells", "setting": "B16F10 tumors [1]; [7]", "result": "allowed emergence"},
      {"measurement": "tumor growth", "setting": "B16F10 tumors [1]; [7]", "result": "suppressed tumor growth"},
      {"measurement": "enhancement of tumor growth by PTEN-inhibitor", "setting": "B16F10 tumors [1]; systems of the disclosure", "result": "does not enhance the growth of tumors"}
    ]},
    {"compound": "pifithrin", "values": [
      {"measurement": "emergence of Ly6c+CD103+ dendritic cell subset", "setting": "p53", "result": "selectively prevented the emergence"},
      {"measurement": "immune surveillance of tumors", "setting": "p53", "result": "allowed tumors to escape immune surveillance"},
      {"measurement": "differentiation of Ly6c+ MDSCs into Ly6c+CD103+ dendritic cells", "setting": "Ly6c+CD11c^NEG cells", "result": "inhibited"}
    ]},
    {"compound": "recombinant IFNγ: recombinant human IFNγ (R&D Systems) used to induce maturation", "values": [
      {"measurement": "maturation of CD33+ cells", "setting": "CD33+ cells", "result": "rapidly matured into activated cells expressing CD83, CD141, XCR1 and Batf3"}
    ]}
  ]
}
